Source: ChEMBL document CHEMBL3046230, “Diversity and antifeedant activity of diterpenes from Turkish species of Sideritis” (2000)

What was measured:
Assay type in all cases: functional
Spodoptera frugiperda = assay: Antifeedant activity against Spodoptera frugiperda (fall armyworm) assessed as feeding index at 100 ppm after 18 hr relative to control
Spodoptera littoralis [1] = assay: Phagostimulant activity against Spodoptera littoralis assessed as feeding index at 100 ppm after 18 hr relative to control
Spodoptera littoralis [2] = assay: Antifeedant activity against Spodoptera littoralis assessed as feeding index at 100 ppm after 18 hr relative to control

| Structure (SMILES) | AFI (Spodoptera frugiperda) | FI (Spodoptera littoralis [1]) | AFI (Spodoptera littoralis [2]) |
| --- | --- | --- | --- |
| C=C1C[C@@]23C[C@@H]1CC[C@H]2[C@]1(C)CC[C@@H](O)[C@](C)(COC(C)=O)[C@@H]1C[C@@H]3O [LINEAROL] | 8% |  |  |
| C=C1C[C@]23C[C@H]1CC[C@H]2[C@]1(C)CC[C@@H](O)[C@](C)(CO)[C@H]1C[C@@H]3O | 21% | 52 |  |
| CC1=C[C@]23C[C@H]1CC[C@H]2[C@]1(C)CCC[C@](C)(CO)[C@H]1C[C@@H]3O | 13% |  | 27% |
| C[C@]1(CO)CCC[C@]2(C)[C@H]1C[C@H](O)[C@@]13C[C@@H](CC[C@@H]21)[C@]1(C)O[C@@H]13 [SIDEROXOL] | 54% |  | 9% |
| CC(=O)OC[C@]1(C)[C@H]2C[C@H](O)[C@]34C=C(C)[C@H](CC[C@H]3[C@]2(C)CC[C@H]1O)C4 | 12% |  |  |
